Test results: patent US9434711B2 (Janssen Pharmaceutica, NV, priority 2007, dated 2016)
Like-named read-outs stand apart in the source and are kept apart here.

Target: canine TRPM8 (Canis lupus familiaris, UniProt Q1A7N1)
Test: In Vitro Canine TRPM8 Functional Assay (Ca2+ fluorescence, icilin activation)
Type: cell-based
Conditions: for inhibition at 0.2 µM: read-out: % Inh @ 0.2; for IC50: read-out: IC50; for inhibition at 0.5 µM: read-out: % Inh @ 0.5
In short: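 Eight-point dose-response curves, each point averaging quadruplicate wells, gave EC50 or IC50. Canine TRPM8-expressing HEK293 cells, dye-loaded (Calcium 3), were pre-exposed 5 min to compound, then challenged with icilin at roughly EC80; intracellular Ca2+ read by FLIPR or FDSS fluorescence.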

[1] = compound at 0.2 μM, canine TRPM8, icilin activation
[2] = HEK293 cells stably expressing canine TRPM8, icilin activation, eight-point dose-response
[3] = compound at 0.5 μM, canine TRPM8, icilin activation
[4] = 0.2 μM compound, HEK293 cells stably expressing canine TRPM8, icilin activation
[5] = HEK293 cells stably expressing canine TRPM8, icilin activation, average of two or more determinations

canine TRPM8, sequence (Q1A7N1 1-1104): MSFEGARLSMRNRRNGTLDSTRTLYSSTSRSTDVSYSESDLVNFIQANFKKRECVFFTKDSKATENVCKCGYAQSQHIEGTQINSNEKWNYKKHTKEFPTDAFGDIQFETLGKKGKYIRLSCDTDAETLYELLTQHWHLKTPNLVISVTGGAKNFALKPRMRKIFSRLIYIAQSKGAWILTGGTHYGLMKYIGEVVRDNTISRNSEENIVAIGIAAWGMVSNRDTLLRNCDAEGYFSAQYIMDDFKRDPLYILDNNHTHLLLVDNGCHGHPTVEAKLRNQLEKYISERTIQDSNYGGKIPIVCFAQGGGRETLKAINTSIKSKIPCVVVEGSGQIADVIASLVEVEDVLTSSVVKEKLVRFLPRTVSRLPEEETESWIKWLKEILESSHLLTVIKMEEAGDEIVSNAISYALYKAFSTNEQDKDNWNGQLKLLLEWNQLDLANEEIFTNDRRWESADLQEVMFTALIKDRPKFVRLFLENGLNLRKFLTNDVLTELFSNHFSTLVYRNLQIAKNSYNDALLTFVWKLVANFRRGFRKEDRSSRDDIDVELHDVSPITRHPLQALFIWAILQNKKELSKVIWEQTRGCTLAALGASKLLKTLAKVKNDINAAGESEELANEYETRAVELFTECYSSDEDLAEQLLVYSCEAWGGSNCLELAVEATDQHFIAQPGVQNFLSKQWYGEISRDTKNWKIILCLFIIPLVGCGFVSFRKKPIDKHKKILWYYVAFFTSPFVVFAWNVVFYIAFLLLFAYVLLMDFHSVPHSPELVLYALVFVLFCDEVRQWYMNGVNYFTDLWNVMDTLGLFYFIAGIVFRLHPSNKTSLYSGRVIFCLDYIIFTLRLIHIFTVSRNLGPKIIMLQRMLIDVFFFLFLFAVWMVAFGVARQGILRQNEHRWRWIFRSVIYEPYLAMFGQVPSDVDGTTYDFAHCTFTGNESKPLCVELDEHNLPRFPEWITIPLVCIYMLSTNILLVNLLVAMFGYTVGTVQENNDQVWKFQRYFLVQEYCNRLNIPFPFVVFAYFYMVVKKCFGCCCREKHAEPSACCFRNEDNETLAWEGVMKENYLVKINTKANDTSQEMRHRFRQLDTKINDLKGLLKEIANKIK

inhibition at 0.2 µM [1] [%] | IC50 [2] [nM] | Structure (SMILES) | further results
16 |  | CCCCN(c1sc2ccccc2c1C(N)=O)S(=O)(=O)c1ccc(C(=O)O)cc1 [Compound 468, N-(Butyl)-N-(3-carbamoyl-benzo[b]thiophen-2-yl)-4-carboxy-benzenesulfonamide] | 
 | 93 | CN(C)CCN(c1sc2ccccc2c1Br)S(=O)(=O)c1ccccc1 [Compound 238, N-(3-Bromo-benzo[b]thiophen-2-yl)-N-(2-dimethylamino-ethyl)-benzenesulfonamide] | inhibition at 0.5 µM [3]: 96%
 |  | COC(=O)c1ccc(S(=O)(=O)N(CCCF)c2sc3ccccc3c2C)cc1 [Compound 823, N-(3-Fluoro-propyl)-N-(3-methyl-benzo[b]thiophen-2-yl)-4-carbomethoxy-benzenesulfonamide] | inhibition at 0.2 µM [4]: 102%; IC50 [5]: 22 nM
101 | 7.8 | O=S1(=O)C(N(CCC2CC2)S(=O)(=O)c2ccccc2)=C(Br)c2ccccc21 [Compound 577, N-(3-Bromo-1,1-dioxo-1H-benzo[b]thiophen-2-yl)-N-(2-cyclopropylethyl)-benzenesulfonamide] | 
66 |  | COC(=O)c1ccc(CN(c2sc3ccccc3c2Br)S(=O)(=O)c2cccnc2)cc1 [Compound 406, N-(3-Bromo-benzo[b]thiophen-2-yl)-N-(4-carbomethoxy-benzyl)-pyridin-3-ylsulfonamide] | 
90 | 3 | O=Cc1c(N(Cc2ccc(F)c(C(F)(F)F)c2)S(=O)(=O)c2ccc(C(=O)O)cc2)sc2ccccc12 [Compound 299, N-(3-Formyl-benzo[b]thiophen-2-yl)-N-(4-fluoro-3-trifluoromethyl-benzyl)-4-carboxy-benzenesulfonamide] | 
102 | 14 | O=c1[nH]c(-c2ccc(S(=O)(=O)N(CCC3CC3)c3sc4ccccc4c3Br)cc2)ns1 [Compound 706, N-(3-Bromo-benzo[b]thiophen-2-yl)-N-(cyclopropyl-ethyl)-4-(5-oxo-4,5-dihydro-[1,2,4]thiadiazol-3-yl)-benzenesulfonamide] | 
102 | 7 | O=C(O)c1ccc(S(=O)(=O)N(CCC(F)(F)F)c2sc3ccccc3c2Br)c(F)c1 [Compound 710, N-(3-Bromo-benzo[b]thiophen-2-yl)-N-(3,3,3-trifluoro-propyl)-2-fluoro-4-carboxy-benzenesulfonamide] | 
18 |  | Cc1c(N(CCCC(F)(F)F)S(=O)(=O)CCC(=O)O)sc2ccccc12 [Compound 605, N-(3-Methyl-benzo[b]thiophen-2-yl)-N-(4,4,4-trifluoro-butyl)-2-carboxy-ethanesulfonamide] | 
 | 2.8 | COc1cc(CN(c2sc3ccccc3c2Br)S(=O)(=O)c2ccccc2)ccc1F [Compound 176, N-(3-Bromo-benzo[b]thiophen-2-yl)-N-(4-fluoro-3-methoxy-benzyl)-benzenesulfonamide] | inhibition at 0.5 µM [3]: 97%
 |  | CCCCN(c1sc2ccccc2c1C(=O)NC)S(=O)(=O)c1ccc(C(=O)OC)cc1 [Compound 466, N-(Butyl)-N-(3-methyl-carbamoyl-benzo[b]thiophen-2-yl)-4-carbomethoxy-benzenesulfonamide] | % Inh @ 0.2 (μM) [1]: 66%
 | 11.1 | O=S(=O)(c1ccccc1)N(Cc1ccccc1OC(F)(F)F)c1sc2ccccc2c1Br [Compound 172, N-(3-Bromo-benzo[b]thiophen-2-yl)-N-(2-trifluoromethoxy-benzyl)-benzenesulfonamide] | inhibition at 0.5 µM [3]: 98%
97 | 1.3 | O=C(O)c1ccc(S(=O)(=O)N(CC2CCCCC2)c2sc3ccccc3c2Br)cc1 [Compound 279, N-(3-Bromo-benzo[b]thiophen-2-yl)-N-(cyclohexylmethyl)-4-carboxy-benzenesulfonamide] | 
92 | 12 | Cc1c(N(Cc2ccc(F)c(C(F)(F)F)c2)S(=O)(=O)c2cccnc2N(C)C)sc2ccccc12 [Compound 358, N-(3-Methyl-benzo[b]thiophen-2-yl)-N-(4-fluoro-3-trifluoromethyl-benzyl)-2-dimethylamino-pyridin-3-yl-sulfonamide] | 
101 | 7 | Cc1c(N(Cc2ccc(F)c(C(F)(F)F)c2)S(=O)(=O)c2ccc(C(=O)NS(C)(=O)=O)cc2)sc2ccccc12 [Compound 623, N-(3-Methyl-benzo[b]thiophen-2-yl)-N-(4-fluoro-3-trifluoromethyl-benzyl)-4-methanesulfonylaminocarbonyl-benzenesulfonamide] | 
98 | 32 | CS(=O)(=O)N(Cc1ccc(F)c(F)c1)c1sc2ccccc2c1C=O [Compound 209, N-(3,4-Difluoro-benzyl)-N-(3-formyl-benzo[b]thiophen-2-yl)-methanesulfonamide] | 
103 | 28.4 | CCCCN(c1sc2ccccc2c1Cl)S(=O)(=O)c1ccc(N(C)C)cc1 [Compound 561, N-(3-Chloro-benzo[b]thiophen-2-yl)-N-(butyl)-4-dimethylamino-benzenesulfonamide] | 
96 | 19 | COc1ccc(S(=O)(=O)N(Cc2ccc(F)c(C(F)(F)F)c2)c2sc3ccccc3c2C)cc1F [Compound 64, N-(4-Fluoro-3-trifluoromethyl-benzyl)-N-(3-methyl-benzo[b]thiophen-2-yl)-3-fluoro-4-methoxybenzenesulfonamide] | 
101 | 7.8 | O=C(O)c1cccc(S(=O)(=O)N(Cc2ccc(F)c(C(F)(F)F)c2)c2sc3ccccc3c2Br)c1 [Compound 293, N-(3-Bromo-benzo[b]thiophen-2-yl)-N-(4-fluoro-3-trifluoromethyl-benzyl)-3-carboxy-benzenesulfonamide] | inhibition at 0.5 µM [3]: 101%
 |  | CCS(=O)(=O)N(Cc1cc(F)c(F)c(OC)c1F)c1sc2ccccc2c1C(C)(C)O [Compound 802, N-[3-(1-Hydroxy-1-methyl-ethyl)-benzo[b]thiophen-2-yl]-N-(2,4,5-trifluoro-3-methoxy-benzyl)-ethanesulfonamide] | inhibition at 0.2 µM [4]: 101%; IC50 [5]: 8 nM
62 |  | O=C1CCC(=O)N1CCN(c1sc2ccccc2c1Br)S(=O)(=O)c1ccccc1 [Compound 257, N-(3-Bromo-benzo[b]thiophen-2-yl)-N-[2-(2,5-dioxo-pyrrolidin-1-yl)-ethyl]-benzenesulfonamide] | 
 | 29.8 | O=S(=O)(c1ccccc1)N(Cc1cccc(O)c1)c1cc2ccccc2s1 [Compound 287, N-(Benzo[b]thiophen-2-yl)-N-(3-hydroxy-benzyl)-benzenesulfonamide] | inhibition at 0.5 µM [3]: 96%
 | 25 | CCS(=O)(=O)N(Cc1ccc(F)c(C(F)(F)F)c1)c1cc2ccccc2s1 [Compound 43, N-(Benzo[b]thiophen-2-yl)-N-(4-fluoro-3-trifluoromethyl-benzyl)-ethanesulfonamide] | inhibition at 0.5 µM [3]: 94%
102 | 13 | Nc1ccc(S(=O)(=O)N(Cc2ccc(F)c(C(F)(F)F)c2)c2cc3ccccc3s2)cc1 [Compound 653, 4-Amino-N-(benzo[b]thiophen-2-yl)-N-(4-fluoro-3-trifluoromethyl-benzyl)-benzenesulfonamide] | 

Structure (SMILES) | inhibition at 0.2 µM [1] [%] | IC50 [2] [nM] | further results
Cc1cccc(CN(c2cc3ccccc3s2)S(=O)(=O)c2ccccc2)c1 [Compound 63] |  | 74 | % Inh @ 0.5 (μM) [3]: 98%
